Here are results for one compound from patent publication US6346620B1, “Methods for preparation of 2-(4-(4-(4,5-dichloro-2-methylimidazol-1-yl)butyl)-1-piperazinyl)-5-fluoropyrimidine and salts thereof” (Laboratories del Dr. Esteve S.A., priority 1997, dated 2002).

As usually defined, the Ki is the equilibrium dissociation constant of an inhibitor or competing ligand from its target. As a reminder, the ED50 is the dose that gives a 50% effect, or the effect in half of the subjects.

SMILES strings stand for the structures.

Assay [1] relates to nausea induced by copper sulfate. The experiment in a line: Antiemetic activity: nausea/vomiting induced by copper sulfate in ferrets. In kind it is in vivo. Particulars: ferret; for Number of episodes of nausea/vomiting: copper sulfate 100 mg/kg intragastric, 30 min observation. On the procedure: (§1) The compounds obtained in the invention are studied with regard to their effects on nausea in ferrets according to a method described by Costall et al. (Neuropharmacology, 1986, 25, 959-961). Ferrets of both sexes (0.7-1.4 kg) are individually housed at 21±1° C. and fed normally. The compound of the example or a vehicle is subsequently administered to them subcutaneously as pretreatment 15 minutes before the administration of copper sulfate (CuSO4.5H2O; 100 mg/kg by the intragastric route) or cisplatin (10 mg/kg i.v. by means of a permanent jugular cannula). The animals are observed at the beginning of vomiting and then for 30 minutes (copper sulfate) or 240 minutes (cisplatin). Vomiting is characterized by rhythmic abdominal contractions, either associated with the expulsion of solid or liquid matter (vomit) or not associated with the passage of matter via the mouth (nausea). The number of episodes and nausea or vomiting are recorded.

For assay [2], the system named is nausea induced by cisplatin. The experiment in a line: Antiemetic activity: nausea/vomiting induced by cisplatin in ferrets. The format is in vivo. The following applies: ferret; for Number of episodes of nausea/vomiting: cisplatin 10 mg/kg i.v., 240 min observation. The procedure:
as §1

For assay [3], the system named is nausea caused by the movement (travel sickness). The experiment in a line: Travel sickness in the shrew (Suncus murinus). The format is in vivo. The following applies: for Number of episodes of nausea/vomiting: motion 1 hertz 4 cm for 20 min. From the text:
The compound of Example 3 is studied with regard to its effect on travel sickness, (vertigo) induced in, Suncus murinus according to the method described by N. Matsuki et al. (“Mechanisms and Control of Emesis”, John Libbey Emotex, 1992, 233, 323-329). Males of the species Suncus murinus weighing 58-72 grams are housed in groups of 3 and are allowed free access to solid food and to water. One hour before the test, they are presented with cat food in their housing cage. At the beginning of the test, the animals receive the treatment with the test product by the i.p. route. After 30 minutes, they are placed individually in the test boxes (15×15×10 cm). The boxes are connected to a motor which displaces them over several wheels forward and backward with a frequency which induces nausea in them (travel sickness). This frequency is 1 hertz with an amplitude of displacement of 4 cm. The animals are left in the test boxes for 30 minutes, in order for them to become used to their surroundings, and then the active movement of the cages is begun for 20 minutes, in order to determine the presence or the absence of nausea (without passage of matter from the digestive tract) and of vomiting (with passage of matter from the digestive tract).

The target of assay [4] is T1, 5HT1A serotonin receptor (Rattus norvegicus, UniProt P19327).
T1 construct: A rat hippocampus homogenate is used; from tissue; host or cells: rat hippocampus homogenate
T1 sequence (P19327 1-422): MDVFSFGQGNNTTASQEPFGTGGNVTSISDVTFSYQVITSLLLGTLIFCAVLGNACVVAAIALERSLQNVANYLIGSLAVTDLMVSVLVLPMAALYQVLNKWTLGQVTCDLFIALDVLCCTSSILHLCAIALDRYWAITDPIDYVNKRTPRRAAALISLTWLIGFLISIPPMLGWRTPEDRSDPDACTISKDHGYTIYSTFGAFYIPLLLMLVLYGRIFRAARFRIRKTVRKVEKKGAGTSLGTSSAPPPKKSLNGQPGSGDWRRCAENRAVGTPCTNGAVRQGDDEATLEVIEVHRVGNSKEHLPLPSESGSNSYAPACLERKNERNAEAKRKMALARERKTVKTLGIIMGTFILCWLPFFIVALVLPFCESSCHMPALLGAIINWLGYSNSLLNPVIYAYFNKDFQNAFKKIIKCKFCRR
As to the kind of experiment: Binding to the 5HT1A serotonin receptor (rat hippocampus homogenate, [3H]-8-HO-DPAT). The following applies: 15 minutes at 37° C., read-out: Ki (inhibition constant). On the procedure: A rat hippocampus homogenate is used, a modification of the method of S. J. Peroutka (Neurochem., 1986, 47, 529) being followed. [^3H]-8-HO-DPAT is used as radioligand and serotonin is used to measure the nonspecific binding. The incubation time is 15 minutes at a temperature of 37° C. The radioligand bonded to the protein is separated by filtration through glass fiber filters and the radioactivity retained on the filter is determined by liquid scintillation. The inhibitIon constant (Ki, nM) is calculated by nonlinear regression analysis using the EBDA/LIGAND program (Munson and Rodbard, Analytical Biochemistry, 1980, 107, 220).

The test system of assay [5] is conditioned avoidance response. The experiment in a line: Test of conditioned avoidance response (C.A.R.). In kind it is in vivo. The following applies: Rattus norvegicus, po; male Wistar rats, p.o., 45 minutes before the study; read-out: ED50 (suppression of conditioned avoidance response). The procedure:
In this test, use is made of male Wistar rats weighing 200 g trained to leap a barrier in a Letica shuttle box (references LI 910 and LI 2700) during the 30 seconds which follow their introduction into the box. Products having an anxiolytic or tranquilizing activity suppress the conditioned avoidance response. Training: first day, 11 tests at intervals of 3 minutes. Electric shock in the paws at 30 seconds (5 mA, 0.1 s, 10 s). Second and third days: two daily tests, only with the selected rats {some of the grades of the first day (except the first test) >14}. Day of the test: groups formed by the selected rats. Oral administration of the product or vehicle 45 minutes before the beginning of the study.

In assay [6] the test system is gastric acid secretion. As to the kind of experiment: Inhibitory activity with regard to gastric acid secretion (Shay procedure). Particulars: Rattus norvegicus, intraduodenal; male Wistar rats, pylorus ligation, i.d., 2 hours; read-out: ED50 (inhibition of gastric acid secretion). The format is in vivo. On the procedure: This activity is determined by means of the Shay procedure (H. Shay et al., Gastroenterology, 1945, 5, 43; Visscher et al., J. Pharmac. Exp. Ther., 1954, 110, 188).
Male Wistar rats weighing from 200 to 250 g are used in this test, which rats are deprived of food up to the day preceding the test, with free access to water. Batches of 4 animals each are used, at least.
The rats are anesthetized with ethyl ether, a laparotomy is performed on them and their pylori are tied, and then an abdominal incision is made. The products are administered intraduodenally (i.d.) before suturing the abdominal incision. The dose administered in the first test is 40 mg/kg and then the median effective dose (ED50) is determined. The vehicle used is gum arabic at 5% w/v in doubly-distilled water.
Two hours after ligating the pylori, the rats are sacrificed by prolonged anesthesia with ethyl ether and the volume of gastric juice is measured. The total acidity is determined by means of a pH meter equipped with an automatic burette. For each product and for each dose tested, the percentage of inhibition of gastric acid secretion is determined with respect to a reference batch.

Turning to `Cc1nc(Cl)c(Cl)n1CCCCN1CCN(c2ncc(F)cn2)CC1.O=C(O)CC(O)(CC(=O)O)C(=O)O` [Example 3, 2-{4-[4-(4,5-dichloro-2-methylimidazol-1-yl)butyl]piperazin-1-yl}-5-fluoropyrimidine citrate], the “Number of episodes of nausea/vomiting” value in assay [1] (0.001 mg/kg s.c.) is 7.4 ± 1.2 (NS); in assay [1] (0.01 mg/kg s.c.), 3.2 ± 0.6 (*); in assay [1] (0.1 mg/kg s.c.), 1.0 ± 0.2 (*); in assay [1] (1 mg/kg s.c.), 1.7 ± 0.3 (*); in assay [2] (0.001 mg/kg s.c.) it was 13.8 ± 2.4 (NS); in assay [2] (0.01 mg/kg s.c.) it was 6.5 ± 3.1 (*). Also, the “Number of episodes of nausea/vomiting” value in assay [2] (0.1 mg/kg s.c.) is 3.1 ± 2.9 (*); in assay [2] (1 mg/kg s.c.) it was 3.0 ± 2.0 (*); in assay [3] (0.001 mg/kg i.p.) it was 8.38 ± 1.41 (NS); in assay [3] (0.01 mg/kg i.p.) it was 0.33 ± 0.21 (*); in assay [3] (0.1 mg/kg i.p.) it was 2.17 ± 0.83 (*); in assay [3] (1.0 mg/kg i.p.) it was 0.33 ± 0.21 (*). In addition, the “Number of episodes of nausea/vomiting” value in assay [3] (10.0 mg/kg i.p.) was 0 ± 0 (*). Besides, in assay [1] (s.c.), the “Effect on nausea induced by copper sulfate (in words)” value is “capable of altering the nausea induced by copper sulfate”. For the same compound, the “Effect on nausea induced by cisplatin (in words)” value in assay [2] (s.c.) is reported as “opposing the nausea induced by cisplatin”. Also, the “Effect on nausea caused by the movement (travel sickness) (in words)” value in assay [3] (doses of 0.01 to 10 mg/kg i.p.) is on record as “markedly inhibits the nausea caused by the movement (travel sickness)”. For the same compound, in assay [4], the inhibitory constant (Ki) turned out to be 19.4 nM. The values for the ED50 in assay [5] and in assay [6] were 9.7 mg/kg and 1.9 mg/kg, respectively.
